PubChem BioAssay AID1845204 (Molecular Pharmacology Branch, DTP, NCI, 2023)
Several values for one entry are separate records, joined by “and”; a condition that tells them apart may be missing. Equal values may be shown once.

System: HSSY-II tumor spheroid viability
Assay: Anticancer human tumor HSSY-II cell line growth inhibition;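 also: spheroids exposed to compounds for seven days before reading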;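 as to viability, T/C: percent of DMSO vehicle control viability so 100% = untreated level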
Settings: spheroids with HUVEC and MSC; for viability, T/C: stronger effect = lower value
Method in brief: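 Complex spheroids of malignant cells with endothelial cells and mesenchymal stem cells; agents alone or combined, from near clinical Cmax (or 10 microM if unknown) down in half-log steps, 0.25% DMSO final.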

What does the source list for `O=C(c1cc(Cc2n[nH]c(=O)c3ccccc23)ccc1F)N1CCN(C(=O)C2CC2)CC1` + Cn1nnc2c(C(N)=O)ncn2c1=O?
IC50 (curve of first compound, second compound 1 µM): 6100 nM; IC50 (curve of first compound, second compound 3.16 µM): 3280 nM; IC50 (curve of first compound, second compound 10 µM): 2480 nM; IC50 (curve of first compound, second compound 31.6 µM): 751 nM; IC50 (curve of first compound, second compound 100 µM): < 94.9 nM; viability, T/C (second compound 1 µM, first compound 0.0949 µM): 98%; viability, T/C (second compound 1 µM, first compound 0.3 µM): 93.6%; viability, T/C (second compound 1 µM, first compound 0.949 µM): 84.2%; viability, T/C (second compound 1 µM, first compound 3 µM): 63.6%; viability, T/C (second compound 1 µM, first compound 9.49 µM): 23.9%; viability, T/C (second compound 1 µM, first compound 30 µM): 59.1%; viability, T/C (second compound 3.16 µM, first compound 0.0949 µM): 94.9%; viability, T/C (second compound 3.16 µM, first compound 0.3 µM): 92.5%; viability, T/C (second compound 3.16 µM, first compound 0.949 µM): 81.9%; viability, T/C (second compound 3.16 µM, first compound 3 µM): 54.8%; viability, T/C (second compound 3.16 µM, first compound 9.49 µM): 20.1%; viability, T/C (second compound 3.16 µM, first compound 30 µM): 43.3%; viability, T/C (second compound 10 µM, first compound 0.0949 µM): 99.6%; viability, T/C (second compound 10 µM, first compound 0.3 µM): 93.3%; viability, T/C (second compound 10 µM, first compound 0.949 µM): 81.3%; viability, T/C (second compound 10 µM, first compound 3 µM): 46.5%; viability, T/C (second compound 10 µM, first compound 9.49 µM): 12%; viability, T/C (second compound 10 µM, first compound 30 µM): 56.4%; viability, T/C (second compound 31.6 µM, first compound 0.0949 µM): 95.5%; viability, T/C (second compound 31.6 µM, first compound 0.3 µM): 78.5%; viability, T/C (second compound 31.6 µM, first compound 0.949 µM): 44%; viability, T/C (second compound 31.6 µM, first compound 3 µM): 14%; viability, T/C (second compound 31.6 µM, first compound 9.49 µM): 11.3%; viability, T/C (second compound 31.6 µM, first compound 30 µM): 9.62%; viability, T/C (second compound 100 µM, first compound 0.0949 µM): 43.4%; viability, T/C (second compound 100 µM, first compound 0.3 µM): 25.2%; viability, T/C (second compound 100 µM, first compound 0.949 µM): 10.7%; viability, T/C (second compound 100 µM, first compound 3 µM): 10.1%; viability, T/C (second compound 100 µM, first compound 9.49 µM): 8.27%; viability, T/C (second compound 100 µM, first compound 30 µM): 9.08%

For `Cn1nnc2c(C(N)=O)ncn2c1=O`, which viability, T/C (compound 1 µM) is on record?
The viability, T/C was 100% [middle of 10 runs].

And the viability, T/C (compound 3.16 µM)?
The viability, T/C was 104% [middle of 10 runs].

And the viability, T/C (compound 10 µM)?
The viability, T/C was 102% [middle of 10 runs].

And the viability, T/C (compound 31.6 µM)?
Its viability, T/C is 103% [middle of 10 runs].

What about the viability, T/C (compound 100 µM) of the same compound?
The viability, T/C was 93.4% [middle of 10 runs].

What about the IC50 (compound alone, run of 12/02/2019) of the same compound?
The IC50 was > 100000 nM.

For `CC1COCCN1c1cc(-c2ccnn2C)c2ccnc(-c3ccn[nH]3)c2n1` (stereo not drawn), which viability, T/C (compound 0.0316 µM) is on record?
Its viability, T/C is 13.6% and 27.8% and 22.3%.

What about the viability, T/C (compound 0.1 µM) of the same compound?
Its viability, T/C is 6.39% and 6.26% and 6.5%.

What about the viability, T/C (compound 0.316 µM) of the same compound?
Its viability, T/C is 4.82% and 2.71% and 2.97%.

What about the viability, T/C (compound 1 µM) of the same compound?
Its viability, T/C is 4.16% and 1.96% and 2.24%.

What about the viability, T/C (compound 3.16 µM) of the same compound?
The viability, T/C was 4.41% and 2.11% and 2.4%.

And the viability, T/C (compound 10 µM)?
The viability, T/C was 6.25% and 2.76% and 2.66%.

And the IC50 (curve of compound)?
Its IC50 is < 31.6 nM.

How did the IC50 (curve of first compound, second compound 0.003 µM) turn out when `Cc1sc2c(c1C)C(c1ccc(Cl)cc1)=NC(CC(=O)Nc1ccc(O)cc1)c1nnc(C)n1-2` (stereo not drawn) + CC[C@@]1(O)C(=O)OCc2c1cc1n(c2=O)Cc2cc3c(CN(C)C)c(O)ccc3nc2-1 was run?
The IC50 was 90.9 nM.

What about the IC50 (curve of first compound, second compound 0.00949 µM) of the same compound?
Its IC50 is < 9.49 nM.

And the IC50 (curve of first compound, second compound 0.03 µM)?
Its IC50 is < 9.49 nM.

What about the IC50 (curve of first compound, second compound 0.0949 µM) of the same compound?
Its IC50 is < 9.49 nM.

And the IC50 (curve of first compound, second compound 0.3 µM)?
The IC50 was < 9.49 nM.

And the viability, T/C (second compound 0.003 µM, first compound 0.00949 µM)?
The viability, T/C was 78.6%.

What about the viability, T/C (second compound 0.003 µM, first compound 0.03 µM) of the same compound?
Its viability, T/C is 70.5%.

And the viability, T/C (second compound 0.003 µM, first compound 0.0949 µM)?
The viability, T/C was 49.2%.

And the viability, T/C (second compound 0.003 µM, first compound 0.3 µM)?
Its viability, T/C is 23.5%.

And the viability, T/C (second compound 0.003 µM, first compound 0.949 µM)?
The viability, T/C was 9.78%.

And the viability, T/C (second compound 0.003 µM, first compound 3 µM)?
Its viability, T/C is 7.01%.

What about the viability, T/C (second compound 0.00949 µM, first compound 0.00949 µM) of the same compound?
The viability, T/C was 37.7%.

And the viability, T/C (second compound 0.00949 µM, first compound 0.03 µM)?
The viability, T/C was 35.2%.

What about the viability, T/C (second compound 0.00949 µM, first compound 0.0949 µM) of the same compound?
Its viability, T/C is 21.8%.

What about the viability, T/C (second compound 0.00949 µM, first compound 0.3 µM) of the same compound?
Its viability, T/C is 15.4%.

What about the viability, T/C (second compound 0.00949 µM, first compound 0.949 µM) of the same compound?
Its viability, T/C is 8.01%.

And the viability, T/C (second compound 0.00949 µM, first compound 3 µM)?
Its viability, T/C is 4.79%.

What about the viability, T/C (second compound 0.03 µM, first compound 0.00949 µM) of the same compound?
The viability, T/C was 7.22%.

What about the viability, T/C (second compound 0.03 µM, first compound 0.03 µM) of the same compound?
The viability, T/C was 6.32%.

And the viability, T/C (second compound 0.03 µM, first compound 0.0949 µM)?
Its viability, T/C is 6.41%.

What about the viability, T/C (second compound 0.03 µM, first compound 0.3 µM) of the same compound?
Its viability, T/C is 5.13%.

And the viability, T/C (second compound 0.03 µM, first compound 0.949 µM)?
Its viability, T/C is 2.41%.

And the viability, T/C (second compound 0.03 µM, first compound 3 µM)?
Its viability, T/C is 2.5%.

What about the viability, T/C (second compound 0.0949 µM, first compound 0.00949 µM) of the same compound?
Its viability, T/C is 5.51%.

What about the viability, T/C (second compound 0.0949 µM, first compound 0.03 µM) of the same compound?
Its viability, T/C is 5.61%.

What about the viability, T/C (second compound 0.0949 µM, first compound 0.0949 µM) of the same compound?
The viability, T/C was 5.13%.

And the viability, T/C (second compound 0.0949 µM, first compound 0.3 µM)?
The viability, T/C was 4.3%.

And the viability, T/C (second compound 0.0949 µM, first compound 0.949 µM)?
Its viability, T/C is 2.91%.

And the viability, T/C (second compound 0.0949 µM, first compound 3 µM)?
Its viability, T/C is 2.35%.

What about the viability, T/C (second compound 0.3 µM, first compound 0.00949 µM) of the same compound?
Its viability, T/C is 4.66%.

What about the viability, T/C (second compound 0.3 µM, first compound 0.03 µM) of the same compound?
The viability, T/C was 4.16%.

And the viability, T/C (second compound 0.3 µM, first compound 0.0949 µM)?
The viability, T/C was 4.31%.

And the viability, T/C (second compound 0.3 µM, first compound 0.3 µM)?
The viability, T/C was 3.08%.

And the viability, T/C (second compound 0.3 µM, first compound 0.949 µM)?
The viability, T/C was 1.91%.

What about the viability, T/C (second compound 0.3 µM, first compound 3 µM) of the same compound?
Its viability, T/C is 0.64%.
